Test results: patent publication US20220315554A1, “COMPOUNDS COMPRISING A […] LIGAND AND USE THEREOF” (priority 2019, published 2022)
pIC50, pKd: −log10 of the molar value. Numbered stars: 1 amine (or outer) side, 2 acyl side, 3 side chain; on linkers, the order of the positions; unused ones are H or OH. Bridge positions count the residues as written; N and C are the ends. Square brackets hold non-standard residues; d marks the D form. Peptide text beside a SMILES is read from it. * marks the point of attachment. TBMB(SCH2CH2NH-DOTA) = O=C(O)CN1CCN(CC(=O)O)CCN(CC(=O)NCCSCc2cc(C[*:1])cc(C[*:2])c2)CCN(CC(=O)O)CC1; X11 = O=C(CN1CCN2CCN3CCN(CC1)CC(=O)[O][In]([O]C(=O)C2)[O]C(=O)C3)NCCSCc1cc(CSCCN[*:2])cc(C[*:1])c1; X7 = O=C(CN1CCN2CCN3CCN(CC1)CC(=O)[O][In]([O]C(=O)C2)[O]C(=O)C3)NCCSCc1cc(C[*:1])cc(C[*:2])c1; X2 = O=C(O)CN1CCN(CC(=O)O)CCN(CC(=O)NCCCOCCOCCOCCCN*)CCN(CC(=O)O)CC1; X9 = NCCNCC(CNCCN)C(=O)N[C@@H](CCC(=O)O)C(=O)NCCCOCCOCCOCCCN*; X10 = O=C([C@H](CCCc1cccc(C[*:3])c1)N[*:1])[*:2]; mXylylene = c1cc(C[*:1])cc(C[*:2])c1; PEG6 = NCCOCCOCCOCCOCCOCCOCCC(=O)O; Suc = O=C(CCC(=O)[*:2])[*:1]; 4Amb = NCc1ccc(C(=O)O)cc1; X18 = NCCNCC(CNCCN)C(=O)*; Nle = CCCC[C@H](N)C(=O)O; Hexanoyl = CCCCCC(=O)*

How the values were obtained:
[1] = biological target: T1, FAP-expressing human WI-38 fibroblasts (Homo sapiens, UniProt Q12884); test: Competitive FACS binding assay; settings: pIC50 Category (FACS), competition with 3 nM Cy5-labeled compound, 4° C., 1 hour
T1 construct: FAP-expressing human WI-38 fibroblasts (ECACC) were cultured in EMEM; host or cells: WI-38 human fibroblasts
T1 sequence (Q12884 1-760): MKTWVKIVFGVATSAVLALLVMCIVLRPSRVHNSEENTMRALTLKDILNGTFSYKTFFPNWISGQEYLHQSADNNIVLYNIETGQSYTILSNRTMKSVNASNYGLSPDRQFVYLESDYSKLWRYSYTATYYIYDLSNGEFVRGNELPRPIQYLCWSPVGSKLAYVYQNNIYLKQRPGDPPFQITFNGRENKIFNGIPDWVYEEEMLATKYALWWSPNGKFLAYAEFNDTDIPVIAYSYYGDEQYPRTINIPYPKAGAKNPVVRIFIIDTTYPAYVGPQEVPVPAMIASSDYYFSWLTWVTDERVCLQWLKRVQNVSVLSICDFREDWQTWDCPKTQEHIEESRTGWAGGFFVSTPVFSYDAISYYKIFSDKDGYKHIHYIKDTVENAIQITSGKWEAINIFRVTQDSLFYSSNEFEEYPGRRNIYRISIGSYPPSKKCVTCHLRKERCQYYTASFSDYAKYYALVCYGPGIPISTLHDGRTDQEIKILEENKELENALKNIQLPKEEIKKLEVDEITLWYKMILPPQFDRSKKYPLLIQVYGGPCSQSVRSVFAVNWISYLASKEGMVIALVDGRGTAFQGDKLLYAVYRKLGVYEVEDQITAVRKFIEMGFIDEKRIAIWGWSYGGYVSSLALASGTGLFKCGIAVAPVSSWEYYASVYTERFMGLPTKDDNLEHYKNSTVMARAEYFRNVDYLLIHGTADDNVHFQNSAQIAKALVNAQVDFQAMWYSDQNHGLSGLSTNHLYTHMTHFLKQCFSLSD
Procedure: Cells were analyzed in an Attune NxT flow cytometer. […]

Human recombinant FAP [2] = biological target: T2, Human recombinant FAP (Homo sapiens, UniProt Q12884); test: Surface plasmon resonance (Biacore) assay; format: binding
T2 sequence (Q12884 1-760): T1 sequence (Q12884 1-760)

Human recombinant FAP [3] = biological target: T2, Human recombinant FAP; test: FRET-based FAP protease activity assay; format: biochemical; design: purchased R&D systems 3715-SE; settings: pIC50 Category (Activity), FRET substrate, 37° C.

Row | SMILES | pIC50 [1] | pKd (Human recombinant FAP [2]) | pIC50 (Human recombinant FAP [3]) | pIC50 ([1]; WI-38 fibroblasts) | pIC50 (Human recombinant FAP [3]; recombinant human FAP)
1 | CCCC[C@H](NC(=O)CCOCCOCCOCCOCCOCCOCCNC(=O)C(CNCCN)CNCCN)C(=O)N[C@H]1CSCc2cccc(c2)CSC[C@@H](C(=O)O)NC(=O)[C@H](Cc2ccccc2)NC(=O)[C@H](CCC(=O)O)NC(=O)[C@H]([C@@H](C)O)NC(=O)[C@@H]2CCCN2C(=O)[C@@H]2CCCN2C1=O [3BP-4221, N4Ac-PEG6-Nle-[Cys-(3MeBn)-Pro-Pro-Thr-Glu-Phe-Cys]-OH] ({X18-PEG6}-[Nle]CPPTEFC-OH; linker 2-8 via mXylylene) | 7.10 to 8.00 | > 8.00 | 7.10 to 8.00 | – | –
2 | CCCCCC(=O)N[C@H]1CSCc2cc(CSCCNC(=O)COCCOCCNC(=O)C(CNCCN)CNCCN)cc(c2)CSC[C@@H](C(=O)O)NC(=O)[C@H](Cc2ccccc2)NC(=O)[C@H](CCC(N)=O)NC(=O)[C@H]([C@@H](C)O)NC(=O)[C@@H]2CCCN2C(=O)[C@@H]2CCCN2C1=O [3BP-4088, Hex-[Cys-(tMeBn(N4Ac-O2Oc-AET))-Pro-Pro-Thr-Gln-Phe-Cys]-OH] | > 8.00 | > 8.00 | > 8.00 | – | –
3 | CCCCCC(=O)N[C@H]1CSCc2cc(CSCCNC(=O)CN3CCN4CCN5CCN(CC3)CC(=O)[O][In]([O]C(=O)C4)[O]C(=O)C5)cc(c2)CSC[C@@H](C(=O)NCC(=O)O)NC(=O)[C@H](Cc2ccccc2)NC(=O)[C@H](CCC(N)=O)NC(=O)[C@H]([C@@H](C)O)NC(=O)[C@@H]2CCCN2C(=O)[C@@H]2CCCN2C1=O [3BP-3714, Hex-[Cys(tMeBn(InDOTA-AET))-Pro-Pro-Thr-Gln-Phe-Cys]-Gly-OH] (Hexanoyl-CPPTQFCG-OH; linker 1-7 via X7) | > 8.00 | > 8.00 | > 8.00 | – | –
4 | CCCCCC(=O)N[C@H]1CSCc2cc(CSCCNC(=O)CN3CCN4CCN5CCN(CC3)CC(=O)[O][Ga]([O]C(=O)C4)[O]C(=O)C5)cc(c2)CSC[C@@H](C(=O)O)NC(=O)[C@H](Cc2ccccc2)NC(=O)[C@H](CCC(N)=O)NC(=O)[C@H]([C@@H](C)O)NC(=O)[C@@H]2CCCN2C(=O)[C@@H]2CCCN2C1 [3BP-3949, Gallium-Complex of Hex-[Cys(tMeBn(DOTA-AET))-Pro-Pro-Thr-Gln-Phe-Cys]-OH] | > 8.00 | > 8.00 | > 8.00 | – | –
5 | CCCCCC(=O)N[C@H]1CSCc2cc(CSCCNC(=O)CN3CCN4CCN5CCN(CC3)CC(=O)[O][In]([O]C(=O)C4)[O]C(=O)C5)cc(c2)CSC[C@@H](C(N)=O)NC(=O)[C@H](Cc2ccccc2)NC(=O)[C@H](CCC(N)=O)NC(=O)[C@H]([C@@H](C)O)NC(=O)[C@@H]2CCCN2C(=O)[C@@H]2CCCN2C1=O [3BP-3712, Hex-[Cys(tMeBn(InDOTA-AET))-Pro-Pro-Thr-Gln-Phe-Cys]-NH2] | > 8.00 | > 8.00 | > 8.00 | – | –
6 | CCCCCC(=O)N[C@H]1CSCc2cc(CSCCNC(=O)CN3CCN(CC(=O)O)CCN(CC(=O)O)CCN(CC(=O)O)CC3)cc(c2)CSC[C@@H](C(=O)O)NC(=O)[C@H](Cc2ccccc2)NC(=O)[C@H](CCC(=O)O)NC(=O)[C@H]([C@@H](C)O)NC(=O)[C@@H]2CCCN2C(=O)[C@@H]2CCCN2C1=O [3BP-4250, Hex-[Cys-(tMeBn(DOTA-AET))-Pro-Pro-Thr-Glu-Phe-Cys]-OH] (Hexanoyl-CPPTEFC-OH; linker 1-7 via TBMB(SCH2CH2NH-DOTA)) | > 8.00 | > 8.00 | 7.10 to 8.00 | – | –
7 | CCCC[C@H](NC(=O)CCC(=O)NCCCOCCOCCOCCCNC(=O)CN1CCN(CC(=O)O)CCN(CC(=O)O)CCN(CC(=O)O)CC1)C(=O)N[C@H]1CSCc2cccc(c2)CSC[C@@H](C(=O)N[C@@H](CC(=O)O)C(N)=O)NC(=O)[C@H](Cc2ccccc2)NC(=O)[C@H](CCC(N)=O)NC(=O)[C@H]([C@@H](C)O)NC(=O)[C@@H]2CCCN2C(=O)[C@@H]2CCCN2C1=O [3BP-3401, DOTA-Ttds-Nle-[Cys(3MeBn)-Pro-Pro-Thr-Gln-Phe-Cys]-Asp-NH2] ({X2-Suc}-[Nle]CPPTQFCD-NH2; linker 2-8 via mXylylene) | – | > 8.00 | – | > 8.00 | > 8.00
8 | CCCCCC(=O)N[C@H]1CSCc2cc(CSCCNC(=O)CN3CCN4CCN5CCN(CC3)CC(=O)[O][In]([O]C(=O)C4)[O]C(=O)C5)cc(c2)CSCCNC(=O)[C@H](Cc2ccccc2)NC(=O)[C@H](CCC(N)=O)NC(=O)[C@H]([C@@H](C)O)NC(=O)[C@@H]2CCCN2C(=O)[C@@H]2CCCN2C1=O [3BP-3713, Hex-[Cys(tMeBn(InDOTA-AET))-Pro-Pro-Thr-Gln-Phe-AET]] (Hexanoyl-CPPTQF; linker 1-C via X11) | > 8.00 | > 8.00 | > 8.00 | – | –
9 | CCCCCC(=O)N[C@H]1CSCc2cccc(c2)CSC[C@@H](C(=O)N[C@@H](CC(=O)O)C(=O)NCc2ccc(C(=O)N[C@@H](CCCNC(=N)N)C(N)=O)cc2)NC(=O)[C@H](Cc2ccccc2)NC(=O)[C@H](CCC(=O)O)NC(=O)[C@H]([C@@H](C)O)NC(=O)[C@@H]2CCCN2C(=O)[C@@H]2CCCN2C1=O [3BP-3301, Hex-[Cys(3MeBn)-Pro-Pro-Thr-Glu-Phe-Cys]-Asp-Pamb-Arg-NH2] (Hexanoyl-CPPTEFCD[4Amb]R-NH2; linker 1-7 via mXylylene) | – | > 8.00 | – | > 8.00 | > 8.00
10 | CCCC[C@H](NC(=O)CCC(=O)NCCCOCCOCCOCCCNC(=O)[C@H](CCC(=O)O)NC(=O)C(CNCCN)CNCCN)C(=O)N[C@H]1CSCc2cccc(c2)CCC[C@@H](C(=O)O)NC(=O)[C@H](Cc2ccccc2)NC(=O)[C@H](CCC(=O)O)NC(=O)[C@H]([C@@H](C)O)NC(=O)[C@@H]2CCCN2C(=O)[C@@H]2CCCN2C1=O [3BP-4222, N4Ac-Glu-Ttds-Nle-[Cys-(3MeBn)-Pro-Pro-Thr-Glu-Phe-Cys]-OH] ({X9-Suc}-[Nle]CPPTEF[X10]-OH; thioether 2-8) | 7.10 to 8.00 | > 8.00 | 7.10 to 8.00 | – | –
11 | CCCCCC(=O)N[C@H]1CSCc2cc(CSCCNC(=O)CN3CCN(CC(=O)O)CCN(CC(=O)O)CCN(CC(=O)O)CC3)cc(c2)CSC[C@@H](C(=O)N(C)CC(=O)O)NC(=O)[C@H](Cc2ccccc2)NC(=O)[C@H](CCC(N)=O)NC(=O)[C@H]([C@@H](C)O)NC(=O)[C@@H]2CCCN2C(=O)[C@@H]2CCCN2C1 [3BP-3659, Hex-[Cys(tMeBn(DOTA-AET))-Pro-Pro-Thr-Gln-Phe-Cys]-Nmg-OH] | > 8.00 | > 8.00 | > 8.00 | – | –
12 | CCCCCC(=O)N[C@H]1CSCc2cc(cc(CN3CCN(C(=O)C(CNCCN)CNCCN)CC3)c2)CSC[C@@H](C(=O)O)NC(=O)[C@H](Cc2ccccc2)NC(=O)[C@H](CCC(N)=O)NC(=O)[C@H]([C@@H](C)O)NC(=O)[C@@H]2CCCN2C(=O)[C@@H]2CCCN2C1=O [3BP-4168, Hex-[Cys-(tMeBn(N4Ac-PP))-Pro-Pro-Thr-Gln-Phe-Cys]-OH] | > 8.00 | > 8.00 | > 8.00 | – | –
13 | CCCCCC(=O)N[C@H]1CSCc2cc(CSCCNC(=O)CCCN(C)C(=O)c3ccccc3-c3c4ccc(=N)c(S(=O)(=O)O)c-4oc4c(S(=O)(=O)O)c(N)ccc34)cc(c2)CSC[C@@H](C(=O)O)NC(=O)[C@H](Cc2ccccc2)NC(=O)[C@H](CCC(N)=O)NC(=O)[C@H]([C@@H](C)O)NC(=O)[C@@H]2CCCN2C(=O)[C@@H]2CCCN2C1=O [3BP-4182, Hex-[Cys(tMeBn(ATTO488-AET))-Pro-Pro-Thr-Gln-Phe-Cys]-OH] | 7.10 to 8.00 | 7.10 to 8.00 | 7.10 to 8.00 | – | –
14 | CCCCCC(=O)N[C@H]1CSCc2cc(CSCCNC(=O)COCCOCCNC(=O)CC[C@H](C(=O)O)N3CCN(CC(=O)O)CCN(CC(=O)O)CC3)cc(c2)CSC[C@@H](C(=O)O)NC(=O)[C@H](Cc2ccccc2)NC(=O)[C@H](CCC(N)=O)NC(=O)[C@H]([C@@H](C)O)NC(=O)[C@@H]2CCCN2C(=O)[C@@H]2CCCN2C1=O [3BP-4251, Hex-[Cys-(tMeBn(NODAGA-O2Oc-AET))-Pro-Pro-Thr-Gln-Phe-Cys]-OH] | > 8.00 | > 8.00 | > 8.00 | – | –
15 | CCCCCC(=O)N[C@H]1CSCc2cc(CSCCNC(=O)C(CNCCN)CNCCN)cc(c2)CSC[C@@H](C(=O)O)NC(=O)[C@H](Cc2ccccc2)NC(=O)[C@H](CCC(N)=O)NC(=O)[C@H]([C@@H](C)O)NC(=O)[C@@H]2CCCN2C(=O)[C@@H]2CCCN2C1=O [3BP-4063, Hex-[Cys-(tMeBn(N4Ac-AET))-Pro-Pro-Thr-Gln-Phe-Cys]-OH] | > 8.00 | > 8.00 | > 8.00 | – | –
